Test results taken from paper PMC12388125, “Design, Synthesis, and Pharmacological Activity of the N-(4-(1H-1,2,4-Triazol-1-yl)phenyl)-substituted-amide Derivatives” (Molecules, 2025).
“Also recorded” adds a separate entry of the source. Read-outs that look alike come from different tables or passages of the source.

Assays:
mice [1] = test system: mice; parameters: method as in doi:10.1016/j.molstruc.2025.141611; settings: cited from earlier work; for NT (neurotoxicity, ROT): lead compound of previous study
[2] = test system: pentylenetetrazole-induced clonic seizures; parameters: method as in doi:10.1016/j.molstruc.2025.141611; settings: cited from earlier work; for scPTZ, dose at which at least one of three animals was protected: lead compound of previous study
MES-induced seizures [3] = test system: MES-induced seizures; parameters: method as in doi:10.1016/j.molstruc.2025.141611; settings: cited from earlier work; for MES, dose at which at least one of three animals was protected: lead compound of previous study
[4] = test system: pentylenetetrazole-induced clonic seizures; assay: animal or person; assay type: in vivo, Kunming mice; settings: for ED50 (scPTZ) / PI (TD50/ED50) scPTZ / ED50: 0.5 h; for ED50 (scPTZ): value (95% CI); for PI (TD50/ED50) scPTZ: Kunming, mouse, in vivo; for ED50 / minimal effective dose: Mus musculus, sc; for ED50: as given in the text, read-out: ED50 (scPTZ); for minimal effective dose: doses 30, 100, 300 mg/kg, read-out: scPTZ, dose at which at least one of three animals was protected
mice [5] = settings: Kunming, mouse, in vivo, 0.5 h
Method: (§1) The neurotoxicity of the target compounds was tested using the ROT experimental model, which was divided into two dose groups, 100 and 300 mg/kg, and tested after 0.5 and 4 h of administration, respectively.
(§2) The neurotoxicity of the target compounds was determined using the ROT experimental model.
(§3) The neurotoxicity of the compounds wa s measured in mice using the rotarod test. Mice
(§4) we r e trained to stay on an accelerating rotarod (diameter, 3.2 cm) rotating at 10 rpm. Trained
(§5) animals we r e injected with the test compounds (i.p.) and neurotoxicity wa s measured as the
(§6) inability of the animal to maintain equilibrium on the rod for at least 1 min in each of the

MES-induced seizures [6] = assay: animal or person; assay type: in vivo, Kunming mice; settings: for ED50 (MES) / PI (TD50/ED50) MES / ED50: 0.5 h; for ED50 (MES): value (95% CI); for PI (TD50/ED50) MES: Kunming, mouse, in vivo; for ED50 / minimal effective dose: Mus musculus; for ED50: as given in the text; for minimal effective dose: ip, doses 30, 100, 300 mg/kg, read-out: MES, dose at which at least one of three animals was protected
[7] = test system: GABA content in brain tissue; assay: GABA estimation in brain tissue; assay type: in vivo, Wistar rats; settings: 30 mg/kg, n = 5
Method: The data obtained from the experiments were analyzed and processed and plotted using GraphPad Prism 8 software.
We i g h about 0.05 g of tissue sample in a homogenizer, add 450 µL of extracting solution
to homogenize, homogenize, transfer to an EP tube, mark the liquid level scale, and heat for 2
hours at 95°C. After heating, centrifuge at 8000 × g for 10 min and remove the supernatant for
① Standard tube: Ta k e 30 µL of different concentrations of standards and add them to
the corresponding 1.5 mL EP tube. Measurement tube: Ta k e 30 µL of sample supernatant and
add it to 1.5 mL EP tube. ② Add 50 µL of buffer solution and 40 µL of Chromogenic Agent A
to each tube in step, mix we l l , and let stand at room temperature for 5 min. ③ Add 60 µL of
Chromogenic Agent B to each tube in step, mix we l l , and heat at 95°C for 10 min, then cool at
ice bath. ④ Add 200 µL of supplementary solution to each tube in step and mix well. ⑤ Ta k e
200 µL into the corresponding we l l s of the enzyme plate, and measure the OD va l u e of each

mice [8] = assay: Elevated plus maze (EPM) test; assay type: in vivo; settings: n = 6
From the text: The EPM experiment is a method for evaluating whether experimental animals have an anxiety response. The principle is that, in the face of new things, mice will generate curiosity to explore (open arm), while they have a nature of darkness (closed arm), the conflict behavior between the two occurs between exploration and avoidance, resulting in anxiety. Anxious behavior can be evaluated by comparing the retention time of mice in the open and closed arms.
Flumazenil is a selective BZ antagonist with a chemical structure similar to that of BZs, which acts on central benzodiazepine (BZ) receptors and thus blocks the receptors without producing BZ-like effects.
The apparatus consisted of a black acrylic maze with two opposite open arms (50×10 cm) and two opposite closed arms (50×10×40 cm) disposed like a plus sign with a central square of 10 cm2. Entire maze wa s elevated 50 cm above the floor. The test consisted in placing the rat in the central square of the maze facing one closed arm and allowing it to explore during 5 min. This procedure wa s performed in a quiet and dimly illuminated room. The scores analysed we r e the time spent in open and closed arms, and the number of entries to both […]
widely used as an anxiety index (time spent in open arms relative to the time spent in open […]
and closed arms). […]

mice [9] = assay: Rotarod (ROT) neurotoxicity test; settings: for NT (neurotoxicity, ROT), dose at which at least one of three animals showed neurotoxicity: doses 100, 300 mg/kg
Method: as §1, §2, §3, §4, §5, §6

[10] = Rotarod (ROT) neurotoxicity test; settings: Kunming, mouse, in vivo, intraperitoneal
Method: as §1, §2, §3, §4, §5, §6

In the case of `CCCCCOc1cc(OCCCCC)n2ncnc2n1` [I], the “NT (neurotoxicity, ROT)” value (mice [1]; 0.5 h) is listed as greater than 150 mg/kg, the “NT (neurotoxicity, ROT)” value (mice [1]; 4 h) is listed as greater than 150 mg/kg and the “TD50 (ROT)” value (mice [1]; lead compound) is listed as 190.7 (207.3–175.4) mg. For the same compound, the “scPTZ, dose at which at least one of three animals was protected” value ([2]; 0.5 h) was 30 mg/kg, the “scPTZ, dose at which at least one of three animals was protected” value ([2]; 4 h) was 30 mg/kg and the “ED50 (scPTZ)” value ([2]; lead compound) was 9.5 (10.4–8.8) mg. The “PI (TD50/ED50) scPTZ” value ([2]; lead compound) was 20.0, the “MES, dose at which at least one of three animals was protected” value (MES-induced seizures [3]; 0.5 h) was 30 mg/kg and the “MES, dose at which at least one of three animals was protected” value (MES-induced seizures [3]; 4 h) was 30 mg/kg. For the same compound, the “ED50 (MES)” value (MES-induced seizures [3]; lead compound) was 11.3 (12.3–10.4) mg and the “PI (TD50/ED50) MES” value (MES-induced seizures [3]; lead compound) was 16.8.
For `CCC1(C)CC(=O)NC1=O` (centres unmarked) [Ethosuximide, reference compound], the ED50 (scPTZ) [4] was 94.4 mg/kg, the “PI (TD50/ED50) scPTZ” value [4] was 3.5 and the ED50 [4] was 94.4 mg/kg. For the same compound, the “TD50 (ROT)” value (mice [5]) was 333.7 (362.8–306.9) mg.
With `NC(=O)N1c2ccccc2C=Cc2ccccc21` [Carbamazepine, reference compound] the ED50 (MES) (MES-induced seizures [6]) was 11.4 mg/kg, the “PI (TD50/ED50) MES” value (MES-induced seizures [6]) was 6.1 and the ED50 (MES-induced seizures [6]) was 11.4 mg/kg. For the same compound, the “TD50 (ROT)” value (mice [5]) was 69.3 (75.4–63.8) mg.
For `O=C(Nc1ccc(-n2cncn2)cc1)c1cccc(F)c1` [Compound 6f, N-(4-(1H-1,2,4-triazol-1-yl)phenyl)-3-fluorobenzamide], the “GABA content in brain tissue vs control” value ([7]; 2 h after administration) was “do not show significant differences”, the “GABA content in brain tissue vs control” value ([7]; 7 d continuous administration) was “showed significant differences” and the “EPM % of time in open arms vs control” value (mice [8]; 3 mg/kg) was “showed a significant difference; also recorded: showed significant differences”. For the same compound, the “EPM % of time in open arms vs control” value (mice [8]; 6f 3 mg/kg + FMZ 5 mg/kg) was “also showed significant differences”, the “EPM time in open arm vs 6f group” value (mice [8]; 6f 3 mg/kg + FMZ 5 mg/kg) was “significantly shortened the time of experimental animals in open arm” and the “TD50 (ROT)” value (mice [9]; 0.5 h, value (95% CI)) was 476.7 (518.3–438.5) mg. The “NT (neurotoxicity, ROT), dose at which at least one of three animals showed neurotoxicity” value (mice [9]; 0.5 h after administration) was greater than 300 mg/kg, the “NT (neurotoxicity, ROT), dose at which at least one of three animals showed neurotoxicity” value (mice [9]; 4 h after administration) was greater than 300 mg/kg and the TD50 at 0.5 h [10] was 477 mg/kg. For the same compound, the ED50 (MES) (MES-induced seizures [6]) was 13.1 mg/kg, the “PI (TD50/ED50) MES” value (MES-induced seizures [6]) was 36.3 and the minimal effective dose (MES-induced seizures [6]; 0.5 h after administration) was 30 mg/kg. For the same compound, the minimal effective dose (MES-induced seizures [6]; 4 h after administration) was 30 mg/kg, the ED50 (MES-induced seizures [6]) was 13.1 mg/kg and the ED50 (scPTZ) [4] was 19.7 mg/kg. For the same compound, the “PI (TD50/ED50) scPTZ” value [4] was 24.2, the ED50 [4] was 19.7 mg/kg and the minimal effective dose ([4]; 0.5 h after administration) was 30 mg/kg. It also gave a minimal effective dose ([4]; 4 h after administration) of 30 mg/kg.
